Measured values: US20110306636A1, “OXAZOLE PYRIDINE DERIVATIVES USEFUL AS S1P1 RECEPTOR AGONISTS” (Merck Serono SA, priority 2009, published 2011)
Structures can show the parent of a compound that is named as a salt. Where two headings read alike, the source gives them in different places.

Columns and labels:
S1P1 [1] = target: T1, S1P1 (Homo sapiens, UniProt P21453); assay: 35S-GTPγS binding assay, S1P1 membranes; assay type: biochemical; conditions: membranes from CHO cells expressing S1P1; read-out: S1P1/GTPG EC50
Protocol: (§1) Membranes Preparation: Membranes were prepared from CHO cells expressing S1P1 or S1P3 for use in ligand and 35S-GTPγS binding studies. Cells were suspended in 50 mM TRIS, pH 7.4, 2 mM EDTA, 250 mM Sucrose (buffer A) and 1× Complete protease inhibitor cocktail (Roche), and disrupted at 4° C. by N2 decompression using a cell disruption bomb (Parr Instrument). Following centrifugation at 1000 RPM for 10 min at 4° C., the supernatant was diluted (2×) in buffer A and centrifuged again at 19000 RPM for 75 min at 4° C. The pellet was then suspended in 10 mM HEPES, pH 7.4, 1 mM EDTA, 250 mM Sucrose (Buffer B), and 1× Complete EDTA-free protease inhibitor cocktail and homogenized using a potter. Membranes were flash frozen in liquid N2 and stored at −80° C.
Measurements of 35S-GTPγS Binding: Membranes (1 to 10 μg protein) prepared as described above, were incubated in 96-well Scintiplates (PerkinElmer) with test compounds diluted in DMSO, in 140 μl of 20 mM HEPES, pH 7.4, 10 mM MgCl2, 2 μg/well Saponin, 0.2% fatty acid free BSA (Assay buffer), 125 mM NaCl and 1.5 μM GDP. The assay was initiated with the addition of 60 μl of 1.5 nM [35S]-GTPγS (1100 Ci/mmol; GE Healthcare) in assay buffer. After 60 min incubation at 30° C. on a shaker, plates were centrifuged for 10 min at 2000 RPM. Supernatant was discarded and membrane bound radioactivity was measured on a PerkinElmer 1450 MicroBeta counter. Triplicate samples were averaged and expressed as % response relative to S1P activation in absence of compound (n=2).
The “potency” or the “activity” of the compounds is determined by the EC50 values as evaluated in the above described 35S-GTPγS binding assay.

S1P1 [2] = target: T1, S1P1; assay: Receptor binding assay, [33P]sphingosine 1-phosphate competition, S1P1
Protocol: as §1
(§2) Receptor binding assay: [33P]sphingosine 1-phosphate (3000 Ci/mmol; American Radiolabeled Chemicals, Inc.) was added to test compounds in 20% DMSO by competition. Membranes and WGA SPA beads (GE Healthcare) were added to give a final volume of 100 μl in 96-well plates or 50 μl in 384-well plates with assay concentrations of 30 pM or 15 pM [33P]sphingosine 1-phosphate (respectively for S1P1 or S1P3), 50 mM HEPES, pH 7.5, 5 mM MgCl2, 100 mM NaCl, 0.4% fatty acid-free BSA, 1-5 μg/well of proteins in 96-well plates vs 0.6-1 μg/well of proteins in 384-well plates and 100 μg/well of WGA SPA beads in 96-well plates vs 75 μg/well of WGA SPA beads in 384-well plates. Binding was performed for 60 min at RT on a shaker and bound radioactivity was measured on a PerkinElmer 1450 MicroBeta counter. Triplicate samples were averaged and normalized as purcentage of inhibition relative to total binding (only DMSO in well) and non specific binding (1000-fold excess of unlabeled S1P). Binding data were analyzed using the GraphPad Prism program or Genedata software.

S1P3 = S1P3 (Homo sapiens, UniProt Q99500); assay: Receptor binding assay, [33P]sphingosine 1-phosphate competition, S1P3
Protocol: as §1, §2

[3] = target: T2, human S1P1 Receptor fused to the green fluorescent protein (EGFP) (Homo sapiens, UniProt P21453); assay: Internalization of S1P1 in S1P1-U2OS cells by cell imaging analysis; assay type: cell-based; conditions: 1 hour incubation, 384-well
T2 construct: host or cells: U2OS (human bone osteosarcoma epithelial cells), CMV promoter, geneticin selection
Protocol: Cellular Functional Assays: Internalization of Sphingosine-1-Phosphate Receptor 1 (S1P1) in a Human Cell Line (U2OS) in a 384-Well Format Using a Cell Imaging Analysis.
The S1P1 internalization assay was performed in 384 well plates (Corning® 384 black with clear bottom 3712) using S1P1-U2OS cells from BioImage (C039A), a human epithelial cell line (Human Bone Osteosarcoma Epithelial Cells). These cells expressed the human S1P1 Receptor fused to the green fluorescent protein (EGFP). A standard CMV promoter (cytomegalovirus promoter) controls the expression of S1P1-EGFP and continuous expression was maintained by addition of geneticin to the culture medium.
S1P1 Receptor desensitization induced the internalization of the membrane-localized S1P1-EGFP fusion protein to endosomes, which can be monitored by cell imaging analysis.
The cells are plated in low serum medium (Dulbecco's Modified Eagle Medium (DMEM) with Glutamax-1 and high glucose, 1% Penicillin/Streptomycin, 1% Fetal Calf Serum (FCS), 0.5 mg/ml Geneticin) overnight.
The next day, S1P1-U2OS cells are incubated in 20 μl serum free medium (DMEM with Glutamax-1 and high glucose, 0.1% of fatty-acid free Bovin Serum Albumin (BSA), 10 mM, N′-2-Hydroxyethylpiperazine-N′-2 ethanesulphonic acid (HEPES) 1M) for 2 hours at 37° C./5% CO2.
The cells are then treated with 4 μl compounds/agonists (6×/3% DMSO) for a total volume of 24 μl, and plates are incubated for 1 hour at 37° C./5% CO2.
S1P1-U2OS cells are fixed with 25 μl Paraformaldehyde 8% and stained with Hoechst 33345 dye (1:1000) for 20 minutes.
They were then washed 3 times with Phosphate Buffered Saline (PBS) and plates are sealed.
The internalization of the receptor S1P1-EGFP is measured on Cellomics by calculating the “spot count per object” (“object” corresponds to nuclear and “spot” corresponds to S1P1-EGFP receptor). Internalization data were observed thanks to vHCS View and analyzed using Genedata® software.

[4] = 96 well-plate, read-out: S1P1 binding IC50 (M) (96 well-plate)
[5] = 96 well-plate, read-out: S1P3 binding IC50 (M) (96 well-plate)
[6] = 384 well-plate, read-out: S1P3 binding IC50 (M) (384 well-plate)

T1 sequence (P21453 whole entry, species assumed): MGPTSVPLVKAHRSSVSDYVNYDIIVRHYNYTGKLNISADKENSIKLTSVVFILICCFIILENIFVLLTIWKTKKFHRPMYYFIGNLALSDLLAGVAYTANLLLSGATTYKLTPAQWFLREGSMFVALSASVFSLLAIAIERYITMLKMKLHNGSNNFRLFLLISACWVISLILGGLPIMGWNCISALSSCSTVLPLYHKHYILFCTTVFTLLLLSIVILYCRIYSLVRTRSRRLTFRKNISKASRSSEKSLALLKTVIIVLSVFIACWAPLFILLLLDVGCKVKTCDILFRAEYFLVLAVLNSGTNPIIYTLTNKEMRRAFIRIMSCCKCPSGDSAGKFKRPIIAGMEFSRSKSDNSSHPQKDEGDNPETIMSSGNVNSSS
Chain of S1P3 (Q99500 whole entry, species assumed): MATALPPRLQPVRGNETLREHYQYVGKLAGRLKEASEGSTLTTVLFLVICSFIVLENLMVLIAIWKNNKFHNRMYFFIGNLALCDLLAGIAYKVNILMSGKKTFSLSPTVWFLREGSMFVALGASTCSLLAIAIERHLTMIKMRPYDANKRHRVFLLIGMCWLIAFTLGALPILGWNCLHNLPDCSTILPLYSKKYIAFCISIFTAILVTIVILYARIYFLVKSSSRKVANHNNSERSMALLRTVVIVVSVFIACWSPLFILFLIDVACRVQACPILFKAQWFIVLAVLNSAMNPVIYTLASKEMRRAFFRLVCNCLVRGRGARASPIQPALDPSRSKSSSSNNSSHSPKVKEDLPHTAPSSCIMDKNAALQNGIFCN
T2 sequence (P21453 with tags, fused parts or gaps): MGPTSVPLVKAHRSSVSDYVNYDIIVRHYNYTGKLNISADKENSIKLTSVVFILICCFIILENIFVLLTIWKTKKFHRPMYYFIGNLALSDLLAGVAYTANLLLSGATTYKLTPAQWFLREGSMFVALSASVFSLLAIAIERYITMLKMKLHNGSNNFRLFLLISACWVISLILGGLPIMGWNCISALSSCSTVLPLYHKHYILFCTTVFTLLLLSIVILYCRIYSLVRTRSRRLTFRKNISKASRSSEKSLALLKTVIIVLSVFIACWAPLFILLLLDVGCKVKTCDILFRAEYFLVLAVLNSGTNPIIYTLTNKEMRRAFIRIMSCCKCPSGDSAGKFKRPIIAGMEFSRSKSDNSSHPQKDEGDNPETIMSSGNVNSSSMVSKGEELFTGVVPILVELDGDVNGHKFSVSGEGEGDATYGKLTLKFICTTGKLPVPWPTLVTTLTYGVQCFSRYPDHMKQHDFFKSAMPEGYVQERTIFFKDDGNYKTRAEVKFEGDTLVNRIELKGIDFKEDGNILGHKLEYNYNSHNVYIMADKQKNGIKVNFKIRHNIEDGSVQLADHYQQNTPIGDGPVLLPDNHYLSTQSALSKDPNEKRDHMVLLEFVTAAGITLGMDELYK

Compound	EC50 (S1P1 [1])	other results
COCc1cc(-c2nc(-c3cnc(N)cn3)no2)ccc1-c1ccccc1C [Example 16, 5-{5-[2-(methoxymethyl)-2′-methylbiphenyl-4-yl]-1,2,4-oxadiazol-3-yl}pyrazin-2-amine]	72.8 nM	–
COCc1cc(-c2nc(-c3ccc(N)nc3)no2)ccc1N1CCCC1C (stereo not drawn) [Example 33, 5-{5-[3-(methoxymethyl)-4-(2-methylpyrrolidin-1-yl)phenyl]-1,2,4-oxadiazol-3-yl}pyridin-2-amine]	7.39 nM	IC50 (S1P1 [2]; [4]): 5.37e-08 M
COCCNc1ncc(-c2noc(-c3ccc(-c4ccccc4C)c(COC)c3)n2)cc1Cl [Example 34, 3-chloro-N-(2-methoxyethyl)-5-{5-[2-(methoxymethyl)-2′-methylbiphenyl-4-yl]-1,2,4-oxadiazol-3-yl}pyridin-2-amine]	11.8 nM	IC50 (S1P1 [2]; [4]): 5.26e-09 M
COCc1cc(-c2nc(-c3ccc(N(C)C)nc3)no2)ccc1-c1ccccc1C [Example 30, 5-{5-[2-(methoxymethyl)-2′-methylbiphenyl-4-yl]-1,2,4-oxadiazol-3-yl}-N,N-dimethylpyridin-2-amine]	688 nM	–
COCc1cc(-c2nc(-c3ccc(NCCCC(=O)O)nc3)no2)ccc1-c1ccccc1C [Example 8, 4-[(5-{5-[2-(methoxymethyl)-2′-methylbiphenyl-4-yl]-1,2,4-oxadiazol-3-yl}pyridin-2-yl)amino]butanoic acid, hydrochloride salt]	9.99 nM	–
COCc1cc(-c2nc(-c3ccnc(NCC(=O)OC(C)(C)C)c3)no2)ccc1-c1ccccc1C [Example 10, tert-butyl N-(4-{5-[2-(methoxymethyl)-2′-methylbiphenyl-4-yl]-1,2,4-oxadiazol-3-yl}pyridin-2-yl)glycinate]	140 nM	–
CC1CCCCN1c1ccc(-c2nc(-c3cnc(N)c(Cl)c3)no2)cc1C(F)(F)F (stereo not drawn) [Example 39, 3-chloro-5-{5-[4-(2-methylpiperidin-1-yl)-3-(trifluoromethyl)phenyl]-1,2,4-oxadiazol-3-yl}pyridin-2-amine]	32.6 nM	–
COCc1cc(-c2nc(-c3ccc(NCC(=O)O)nc3)no2)ccc1-c1ccccc1C [Example 3, N-(5-{5-[2-(methoxymethyl)-2′-methylbiphenyl-4-yl]-1,2,4-oxadiazol-3-yl}pyridin-2-yl)glycine, hydrochloride salt]	131 nM	–
COCc1cc(-c2nc(-c3ccnc(N(C)C)c3)no2)ccc1-c1ccccc1C [Example 6, 4-{5-[2-(methoxymethyl)-2′-methylbiphenyl-4-yl]-1,2,4-oxadiazol-3-yl}-N,N-dimethylpyridin-2-amine, hydrochloride salt]	145 nM	–
Cc1ccccc1-c1ccc(-c2nc(-c3ccc(N)nc3)no2)cc1C(F)(F)F [Example 19, 5-{5-[2′-methyl-2-(trifluoromethyl)biphenyl-4-yl]-1,2,4-oxadiazol-3-yl}pyridin-2-amine]	22.3 nM	–
COCc1cc(-c2nc(-c3ccc(NC(C)=O)nc3)no2)ccc1-c1ccccc1C [Example 5, N-(5-{5-[2-(methoxymethyl)-2′-methylbiphenyl-4-yl]-1,2,4-oxadiazol-3-yl}pyridin-2-yl)acetamide, hydrochloride salt]	14.6 nM	–
COCc1cc(-c2nc(-c3ccc(C(N)=O)nc3)no2)ccc1-c1ccccc1C [Example 26, 5-{5-[2-(methoxymethyl)-2′-methylbiphenyl-4-yl]-1,2,4-oxadiazol-3-yl}pyridine-2-carboxamide]	45.2 nM	–
COCc1cc(-c2nc(-c3cnc(NCC(=O)O)c(Cl)c3)no2)ccc1-c1ccccc1C [Example 38, N-(3-chloro-5-{5-[2-(methoxymethyl)-2′-methylbiphenyl-4-yl]-1,2,4-oxadiazol-3-yl}pyridin-2-yl)glycine, hydrochloride salt]	29.1 nM	–
COCc1cc(-c2nc(-c3ccc(NCCC(=O)OC(C)(C)C)nc3)no2)ccc1-c1ccccc1C [Example 1, tert-butyl N-(5-{5-[2-(methoxymethyl)-2′-methylbiphenyl-4-yl]-1,2,4-oxadiazol-3-yl}pyridin-2-yl)-beta-alaninate]	134 nM	–
COCc1cc(-c2nc(-c3ccc(OC)nc3)no2)ccc1-c1ccccc1C [Example 23, 2-methoxy-5-{5-[2-(methoxymethyl)-2′-methylbiphenyl-4-yl]-1,2,4-oxadiazol-3-yl}pyridine]	74.1 nM	–
COCc1cc(-c2nc(-c3ccc(N4CCCC4)nc3)no2)ccc1-c1ccccc1C [Example 31, 5-{5-[2-(methoxymethyl)-2′-methylbiphenyl-4-yl]-1,2,4-oxadiazol-3-yl}-2-pyrrolidin-1-ylpyridine]	873 nM	–
COCc1cc(-c2nc(-c3cnc(NCCC(=O)OC(C)(C)C)c(Cl)c3)no2)ccc1-c1ccccc1C [Example 35, tert-butyl N-(3-chloro-5-{5-[2-(methoxymethyl)-2′-methylbiphenyl-4-yl]-1,2,4-oxadiazol-3-yl}pyridin-2-yl)-beta-alaninate]	9.45 nM	–
COCc1cc(-c2nc(-c3cnc(NCCC(=O)O)c(C)c3)no2)ccc1-c1ccccc1C [Example 58, N-(5-{5-[2-(methoxymethyl)-2′-methylbiphenyl-4-yl]-1,2,4-oxadiazol-3-yl}-3-methylpyridin-2-yl)-beta-alanine, hydrochloride salt]	–	IC50 (S1P1 [2]; [4]): 2.94e-09 M; IC50 (S1P1 [2]; 384 well-plate, read-out: S1P1 binding IC50 (M) (384 well-plate)): 2.48e-08 M; IC50 (S1P3; [5]): 9.3e-06 M; IC50 (S1P3; [6]): 5.26e-06 M; EC50 [3]: 45.5 nM
COCc1cc(-c2nc(-c3ccc(C(=O)O)nc3)no2)ccc1-c1ccccc1C [Example 25, 5-{5-[2-(methoxymethyl)-2′-methylbiphenyl-4-yl]-1,2,4-oxadiazol-3-yl}pyridine-2-carboxylic acid, hydrochloride salt]	39.9 nM	–
CNc1ccc(-c2noc(-c3ccc(-c4ccccc4C)c(COC)c3)n2)cn1 [Example 29, 5-{5-[2-(methoxymethyl)-2′-methylbiphenyl-4-yl]-1,2,4-oxadiazol-3-yl}-N-methylpyridin-2-amine]	43.8 nM	–
COCc1cc(-c2nc(-c3cnc(NCCCC(=O)O)c(C)c3)no2)ccc1-c1ccccc1F [Example 55, 4-[(5-{5-[2′-fluoro-2-(methoxymethyl)biphenyl-4-yl]-1,2,4-oxadiazol-3-yl}-3-methylpyridin-2-yl)amino]butanoic acid, hydrochloride salt]	–	IC50 (S1P1 [2]; [4]): 6.02e-09 M; IC50 (S1P3; [5]): 2.82e-06 M; IC50 (S1P3; [6]): 3.39e-06 M; EC50 [3]: 64.5 nM
